The experiment can be described thus: Inhibition of LFA-1/ICAM-1 interaction in mouse Lim51b cells assessed as PMA-induced adhesion to ICAM-1 expressing HSE cells measured per 10^5 cells after 30 mins by fluorometric microplate reader analysis.

As for `CC[C@H](C)[C@H](OCc1ccccc1)[C@H]1[C@H]([N+](=O)[O-])[C@H](c2ccccc2)N[C@]1(C)C(=O)NCCC(=O)O`, the IC50 (as a rule, the midpoint of a concentration-inhibition curve) turned out to be 27.6 µM.

(Values after BindingDB's records for doi:10.1021/jm3016848 (Ikerchem, 2013).)
